Tests used:
[1] = biological target: recombinant poly(ADP-ribose) polymerase 1 (PARP1) (Homo sapiens, UniProt P09874); assay: biochemical; details: inhibition of PARP1 enzyme activity, chemiluminescence
[2] = biological target: recombinant poly(ADP-ribose) polymerase 2 (PARP2) (Homo sapiens, UniProt Q9UGN5); assay: biochemical; details: inhibition of PARP2 enzyme activity, chemiluminescence
[3] = test system: MDA-MB-436 cells; assay: Growth inhibition assay against BRCA mutant human breast cancer MDA-MB-436 cell line (CCK-8, 7 days); format: cell-based

Sequence of recombinant poly(ADP-ribose) polymerase 1 (PARP1) (P09874 whole entry): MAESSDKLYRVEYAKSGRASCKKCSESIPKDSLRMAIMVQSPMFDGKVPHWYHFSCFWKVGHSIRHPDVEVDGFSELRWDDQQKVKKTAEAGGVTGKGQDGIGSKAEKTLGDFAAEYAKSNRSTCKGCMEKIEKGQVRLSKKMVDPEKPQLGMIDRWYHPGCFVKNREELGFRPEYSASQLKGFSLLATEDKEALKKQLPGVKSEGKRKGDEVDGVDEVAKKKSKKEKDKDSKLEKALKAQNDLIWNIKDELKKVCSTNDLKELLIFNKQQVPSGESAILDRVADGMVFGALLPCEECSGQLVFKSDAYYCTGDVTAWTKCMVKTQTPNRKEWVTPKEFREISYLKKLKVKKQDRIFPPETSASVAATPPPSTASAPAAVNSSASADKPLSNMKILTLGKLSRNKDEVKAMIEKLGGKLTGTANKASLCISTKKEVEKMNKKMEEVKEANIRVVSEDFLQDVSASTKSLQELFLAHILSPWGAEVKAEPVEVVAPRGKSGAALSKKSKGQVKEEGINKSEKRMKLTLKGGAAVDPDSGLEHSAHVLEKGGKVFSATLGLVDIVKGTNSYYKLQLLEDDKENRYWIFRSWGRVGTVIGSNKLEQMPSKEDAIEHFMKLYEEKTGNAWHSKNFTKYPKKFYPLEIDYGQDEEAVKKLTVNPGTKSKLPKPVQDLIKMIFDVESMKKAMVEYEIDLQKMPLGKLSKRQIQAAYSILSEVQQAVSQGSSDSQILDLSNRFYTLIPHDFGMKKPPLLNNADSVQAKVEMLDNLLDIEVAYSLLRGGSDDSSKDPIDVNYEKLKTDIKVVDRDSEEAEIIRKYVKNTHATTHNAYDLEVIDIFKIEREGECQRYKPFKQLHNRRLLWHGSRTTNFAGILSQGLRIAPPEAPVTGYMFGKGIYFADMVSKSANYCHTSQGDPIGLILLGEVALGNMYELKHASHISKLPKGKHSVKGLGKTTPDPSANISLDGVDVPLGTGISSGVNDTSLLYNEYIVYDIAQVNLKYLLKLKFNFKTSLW
Sequence of recombinant poly(ADP-ribose) polymerase 2 (PARP2) (Q9UGN5 whole entry): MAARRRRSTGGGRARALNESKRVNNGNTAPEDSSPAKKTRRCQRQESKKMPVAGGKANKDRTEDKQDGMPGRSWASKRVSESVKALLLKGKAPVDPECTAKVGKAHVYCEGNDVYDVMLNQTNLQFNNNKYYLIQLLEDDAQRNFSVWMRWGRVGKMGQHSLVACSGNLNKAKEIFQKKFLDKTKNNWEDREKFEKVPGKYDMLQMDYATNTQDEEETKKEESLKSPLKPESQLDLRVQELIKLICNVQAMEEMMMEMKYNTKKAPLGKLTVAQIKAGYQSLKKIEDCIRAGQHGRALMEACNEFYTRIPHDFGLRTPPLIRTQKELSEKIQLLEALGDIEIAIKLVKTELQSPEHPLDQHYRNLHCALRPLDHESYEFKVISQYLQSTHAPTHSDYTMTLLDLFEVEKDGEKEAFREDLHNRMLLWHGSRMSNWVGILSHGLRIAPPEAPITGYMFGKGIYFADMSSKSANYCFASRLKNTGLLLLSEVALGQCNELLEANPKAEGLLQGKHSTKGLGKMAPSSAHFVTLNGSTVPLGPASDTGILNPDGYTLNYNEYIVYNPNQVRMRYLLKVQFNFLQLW

SMILES	IC50 [1] [nM]	IC50 [2] [nM]	IC50 [3] [nM]
CNC(=O)c1ccc(N2CCN(Cc3ccc4c5c(c(=O)[nH]c4c3)COC5)CC2)c(F)n1 [Example 2, 7-((4-(2-fluoro-6-(methylcarbamoyl)pyridin-3-yl)piperazin-1-yl)methyl)-3,5-dihydrofuro[3,4-c]quinolin-4(1H)-one]	1.91	128	2.65
CCNC(=O)c1ccc(N2CCN(Cc3ccc4c5c(c(=O)[nH]c4c3)COC5)CC2)c(Cl)n1 [Example 6, 7-((4-(2-chloro-6-(ethylcarbamoyl)pyridin-3-yl)piperazin-1-yl)methyl)-3,5-dihydrofuro[3,4-c]quinolin-4(1H)-one]	1.86		17.7
CCNC(=O)c1ccc(N2CCN(Cc3ccc4c5c(c(=O)[nH]c4c3)COC5)CC2)c(C)n1 [Example 7, 7-((4-(2-methyl-6-(ethylcarbamoyl)pyridin-3-yl)piperazin-1-yl)methyl)-3,5-dihydrofuro[3,4-c]quinolin-4(1H)-one]	1.9		4.36
CNC(=O)c1ccc(N2CCN(Cc3ccc4c5c(c(=O)[nH]c4c3)CCC5)CC2)c(Cl)n1 [Example 16, 7-((4-(2-chloro-6-(methylcarbamoyl)pyridin-3-yl)piperazin-1-yl)methyl)-1,2,3,5-tetrahydro-4H-cyclopenta[c]quinolin-4-one]	1.99		1.71
CNC(=O)c1ccc(N2CCN(Cc3ccc4c(c3)[nH]c(=O)c3nccn34)CC2)c(C)n1 [Example 25, 7-((4-(2-methyl-6-(methylcarbamoyl)pyridin-3-yl)piperazin-1-yl)methyl)imidazo[1,2-a]quinoxalin-4(5H)-one]	1.93		44.9
CNC(=O)c1ccc(N2CCN(Cc3ccc4c(c3)[nH]c(=O)n3cncc43)CC2)c(C)n1 [Example 30, 8-((4-(2-methyl-6-(methylcarbamoyl)pyridin-3-yl)piperazin-1-yl)methyl)imidazo[1,5-c]quinazolin-5(6H)-one]	1.54	2590	
CNC(=O)c1ccc(N2CCN(Cc3cc(F)c4c(c3)[nH]c(=O)n3ccnc43)CC2)c(F)n1 [Example 53, 8-((4-(2-fluoro-6-(methylcarbamoyl)pyridin-3-yl)piperazin-1-yl)methyl)-10-fluoroimidazo[1,2-c]quinazolin-5(6H)-one]	2.34	1950	
O=C(NC1CC1)c1ccc(N2CCN(Cc3cc(F)c4c5c(c(=O)[nH]c4c3)CCC5)CC2)c(F)n1 [Example 82, 7-((4-(2-fluoro-6-(cyclopropylcarbamoyl)pyridin-3-yl)piperazin-1-yl)methyl)-9-fluoro-1,2,3,5-tetrahydro-4H-cyclopenta[c]quinolin-4-one]			3.66
CNC(=O)c1ccc(N2CCN(Cc3ccc4c(c3)[nH]c(=O)c3cscc34)CC2)c(C)n1 [Example 83, 7-((4-(2-methyl-6-(methylcarbamoyl)pyridin-3-yl)piperazin-1-yl)methyl)thieno[3,4-c]quinolin-4(5H)-one]	1.08	18.3	
CNC(=O)c1ccc(N2CCN(Cc3ccc4c(c3)[nH]c(=O)c3sccc34)CC2)c(C)n1 [Example 84, 7-((4-(2-methyl-6-(methylcarbamoyl)pyridin-3-yl)piperazin-1-yl)methyl)thieno[2,3-c]quinolin-4(5H)-one]	0.77	10.1	
CNC(=O)c1ccc(N2CCN(Cc3ccc4c(c3)[nH]c(=O)c3ccsc34)CC2)c(C)n1 [Example 85, 7-((4-(2-methyl-6-(methylcarbamoyl)pyridin-3-yl)piperazin-1-yl)methyl)thieno[3,2-c]quinolin-4(5H)-one]	1.52	78	
CNC(=O)c1ccc(N2CCN(Cc3cc(F)c4c(c3)[nH]c(=O)c3cscc34)CC2)c(C)n1 [Example 86, 7-((4-(2-methyl-6-(methylcarbamoyl)pyridin-3-yl)piperazin-1-yl)methyl)-9-fluorothieno[3,4-c]quinolin-4(5H)-one]	0.66	13.3	
[2H]C([2H])([2H])NC(=O)c1ccc(N2CCN(Cc3cc(F)c4c(c3)[nH]c(=O)c3ccnn34)CC2)c(C)n1 [Example 90, 7-((4-(2-methyl-6-((methyl-d3)-carbamoyl)pyridin-3-yl)piperazin-1-yl)methyl)-9-fluoropyrazolo[1,5-a]quinoxalin-4(5H)-one]			2.44
CNC(=O)c1ccc(N2CCN(Cc3cc4[nH]c(=O)c5ccnn5c4cc3F)CC2)c(C)n1 [Example 93, 7-((4-(2-methyl-6-(methylcarbamoyl)pyridin-3-yl)piperazin-1-yl)methyl)-8-fluoropyrazolo[1,5-a]quinoxalin-4(5H)-one]			5.68
CNC(=O)c1ccc(N2CCN(Cc3cc(F)c4c(c3)[nH]c(=O)n3ccnc43)CC2)c(C)n1 [Example 96, 8-((4-(2-methyl-6-(methylcarbamoyl)pyridin-3-yl)piperazin-1-yl)methyl)-10-fluoroimidazo[1,2-c]quinazolin-5(6H)-one]			1.93
CNC(=O)c1ccc(N2CCN(Cc3cc(F)c4c(c3)[nH]c(=O)c3ccnn34)CC2)cn1 [Example 97, 7-((4-(6-(methylcarbamoyl)pyridin-3-yl)piperazin-1-yl)methyl)-9-fluoropyrazolo[1,5-a]quinoxalin-4(5H)-one]			111

SMILES	IC50 [1] [nM]	IC50 [2] [nM]	IC50 [3] [nM]
CNC(=O)c1ccc(N2CCN(Cc3ccc4c(c3)[nH]c(=O)c3c(Cl)cnn34)CC2)c(F)n1 [Example 99, 7-((4-(2-fluoro-6-(methylcarbamoyl)pyridin-3-yl)piperazin-1-yl)methyl)-3-chloropyrazolo[1,5-a]quinoxalin-4(5H)-one]			0.54
CNC(=O)c1ccc(N2CCN(Cc3ccc4c(c3)[nH]c(=O)c3occc34)CC2)c(C)n1 [Example 104, 7-((4-(2-methyl-6-(methylcarbamoyl)pyridin-3-yl)piperazin-1-yl)methyl)furo[2,3-c]quinolin-4(5H)-one]	1.42		
CNC(=O)c1ccc(N2CCN(Cc3ccc4c(c3)[nH]c(=O)c3cnn(C)c34)CC2)c(C)n1 [Example 105, 7-((4-(2-methyl-6-(methylcarbamoyl)pyridin-3-yl)piperazin-1-yl)methyl)-1-methyl-1,5-dihydro-4H-pyrazolo[4,3-c]quinolin-4-one]		910	
CNC(=O)c1ccc(N2CCN(Cc3cc(F)c4c(c3)[nH]c(=O)c3occc34)CC2)c(F)n1 [Example 108, 7-((4-(2-fluoro-6-(methylcarbamoyl)pyridin-3-yl)piperazin-1-yl)methyl)-9-fluoro-furo[2,3-c]quinolin-4(5H)-one]	0.66	353	
CCNC(=O)c1ccc(N2CCN(Cc3ccc4c([nH]c(=O)c5ccnn54)c3F)CC2)c(F)n1 [Example 110, 7-((4-(2-fluoro-6-(ethylcarbamoyl)pyridin-3-yl)piperazin-1-yl)methyl)-6-fluoropyrazolo[1,5-a]quinoxalin-4(5H)-one]	1.95	965	
O=C(NC1CC1)c1ccc(N2CCN(Cc3ccc4c([nH]c(=O)c5ccnn54)c3F)CC2)c(F)n1 [Example 111, 7-((4-(2-fluoro-6-(cyclopropylcarbamoyl)pyridin-3-yl)piperazin-1-yl)methyl)-6-fluoropyrazolo[1,5-a]quinoxalin-4(5H)-one]	1.27	455	
CNC(=O)c1ccc(N2CCN(Cc3ccc4c([nH]c(=O)c5cc(Cl)nn54)c3F)CC2)c(F)n1 [Example 112, 7-((4-(2-fluoro-6-(methylcarbamoyl)pyridin-3-yl)piperazin-1-yl)methyl)-6-fluoro-2-chloropyrazolo[1,5-a]quinoxalin-4(5H)-one]	0.57	223	
Cc1nc(C(=O)O)ccc1N1CCN(Cc2cc(F)c3c(c2)[nH]c(=O)c2ccnn23)CC1 [Example 116, 7-((4-(2-methyl-6-carboxypyridin-3-yl)piperazin-1-yl)methyl)-9-fluoropyrazolo[1,5-a]quinoxalin-4(5H)-one]			> 100
CNC(=O)c1ccc(N2CCN(Cc3ccc4c(c3)[nH]c(=O)n3nccc43)CC2)c(C)n1 [Example 118, 8-((4-(2-methyl-6-(methylcarbamoyl)pyridin-3-yl)piperazin-1-yl)methyl)pyrazolo[1,5-c]quinazolin-5(6H)-one]			10.7
CNC(=O)c1ccc(N2CCN(Cc3cc(F)c4c(c3)[nH]c(=O)n3ccnc43)CC2)c(F)n1 [Example 120]		1950	
CNC(=O)c1ccc(N2CCN(Cc3ccc4c(c3)[nH]c(=O)c3c(C)c(C)nn34)CC2)c(F)n1 [Example 125, 7-((4-(2-fluoro-6-(methylcarbamoyl)pyridin-3-yl)piperazin-1-yl)methyl)-2,3-dimethylpyrazolo[1,5-a]quinoxalin-4(5H)-one]	1.05	3.7	
CNC(=O)c1ccc(N2CCN(Cc3cc(F)c4c(c3)[nH]c(=O)c3c(Cl)cnn34)CC2)c(C)n1 [Example 127, 7-((4-(2-methyl-6-(methylcarbamoyl)pyridin-3-yl)piperazin-1-yl)methyl)-3-chloro-9-fluoropyrazolo[1,5-a]quinoxalin-4(5H)-one]	0.85	83	
CNC(=O)c1ccc(N2CCN(Cc3ccc4c([nH]c(=O)c5ccnn54)c3C)CC2)c(C)n1 [Example 129, 7-((4-(2-methyl-6-(methylcarbamoyl)pyridin-3-yl)piperazin-1-yl)methyl)-6-methylpyrazolo[1,5-a]quinoxalin-4(5H)-one]	1.48	369	
CNC(=O)c1ccc(N2CCN(Cc3cc(F)c4c(c3)[nH]c(=O)n3cccc43)CC2)c(C)n1 [Example 131, 8-((4-(2-methyl-6-(methylcarbamoyl)pyridin-3-yl)piperazin-1-yl)methyl)-10-fluoropyrrolo[1,2-c]quinazolin-5(6H)-one]	0.78	111	
CNC(=O)c1ccc(N2CCN(Cc3ccc4c([nH]c(=O)c5ccnn54)c3C)CC2)c(F)n1 [Example 133, 7-((4-(2-fluoro-6-(methylcarbamoyl)pyridin-3-yl)piperazin-1-yl)methyl)-6-methylpyrazolo[1,5-a]quinoxalin-4(5H)-one]	1.5	222	

Source: patent US20240368169A1 (priority 2021, published 2024)
